Assay results published in patent publication US20090214445A1, “DELIVERY SYSTEMS FOR MANAGING RELEASE OF FUNCTIONAL INGREDIENTS IN AN EDIBLE COMPOSITION” (Cadbury Adams USA LLC, priority 2005, published 2009).

Assay: Discoloration (degradation) of sucralose during encapsulation
Assay type: physicochemical
Settings: with polyvinyl acetate, 2% polyvinylpyrollidone, 1% magnesium stearate; tablets pressed at 25° C., heated to 80° C.
Method: As one example of a hydrophilic coating, sucralose was mixed with powdered polyvinyl acetate and 5% fat and extruded at 110° C. […] In an alternative encapsulation, sucralose was mixed with powdered polyvinyl acetate, 2% polyvinylpyrollidone and 1% magnesium stearate and pressed into tablets at 25° C. The tablets were then heated to 80° C., which softened the polymer and fused the polyvinylacetate with the sucralose. […] Thereafter, the tablets were cooled, ground and sized and analyzed. […] As another example, a polymer/sweetener matrix was prepared as described above in this paragraph. A solution of gum arabic was made and coated on the polymer/sweetener matrix particles using the method described in U.S. Pat. No. 3,196,827, the relevant portions of which are incorporated herein by reference. Coating levels were 20, 30, 40, and 50% for different samples. Chewing gums prepared with the coated polymer/sweetener matrix particles were chewed by a panel with bolus collection at 5, 10, 15, 20 minutes. Residual sucralose was analyzed in each chewed bolus.

SMILES: OC[C@H]1O[C@H](O[C@]2(CCl)O[C@H](CCl)[C@@H](O)[C@@H]2O)[C@H](O)[C@@H](O)[C@H]1Cl [sucralose]
- discoloration of the sucralose: No discoloration
